Reference: paper PMC12040169 (PLOS Biology, 2025)

assay: in vitro; conditions: human, hela cells, % viability

Point of comparison: Cc1cc(NC(=O)C2CCN(CCOc3ccccc3F)CC2)no1 [CBK305688], viability at 28.5 h, 10 µM 100%. Against it:
- COc1ccc(C2NCCc3c2[nH]c2ccccc32)cc1CSc1nc2ccccc2s1 (stereo not shown) [CBK264303C] — lower, 96.8%
- COCCN(C)c1ccc(C(=O)N2CCC(N3CCOCC3)CC2)cn1 [CBK306851] — higher, 111%
- O=C(Nc1nc(-c2cccnc2)cs1)c1cccc(N2C(=O)CCC2=O)c1 [CBK287564] — higher, 108%
- O=c1sn(-c2ccccc2C(F)(F)F)c(=O)n1CC1CC1 [CBK113675] — lower, 82.8%
- Cc1c(-c2cccc(NC(=O)c3ccccc3)c2)nc2ncccn12 [CBK287504] — lower, 67.3%
- NS(=O)(=O)c1ccc(NC(=O)c2cccnc2)cc1 [CBK264488] — higher, 106%
- CCn1c2cc(C)sc2c2cnn(CC(=O)N3CCCC3)c(=O)c21 [CBK284168] — lower, 99.8%
- c1ccc2[nH]c(NCCN3CCOCC3)nc2c1 [CBK268791] — lower, 96.7%
- CC(C)COC(=O)N1CCC2(CC1)CC(=O)N(Cc1ccc(S(C)(=O)=O)cc1)C2=O [CBK155948] — higher, 103%
- Cc1ccc(C(=O)Nc2cccc(-c3ccc4nnc(C)n4n3)c2)cc1 [CBK287683] — lower, 82.8%
- CCNc1cncc(-c2cc(OC)c(OC)c(OC)c2)n1 [CBK065336] — lower, 99.1%
- CC(C)N1CNc2c(c(=O)nc(O)n2Cc2ccccc2)C1 [CBK291139] — lower, 92.5%
- Cn1c(=O)[nH]c(=O)c2c1nc(N1CCOCC1)n2CCCSc1nc2ccccc2s1 [CBK269368] — lower, 92.7%
- O=C(O)c1ccc(C(=O)NC2CCN(CC(F)(F)F)C2=O)s1 (stereo not shown) [CBK305524] — lower, 95.4%
- Cc1cccc(Cn2cnc(NC(=O)Nc3cccc(Cl)c3C)n2)c1 [CBK266876] — lower, 89.5%
- CC(=O)Nc1ccc2c(c1)CCC(C)C2=O (stereo not shown) [CBK003474] — lower, 78.4%
- Cc1cc(C=O)c(O)c(/C=N/CC/N=C/c2cc(C)cc(C=O)c2O)c1 [CBK262149] — lower, 95.6%
- Cc1cnn(CC(=O)N2CCCCC2CN2CCCCCC2)c1 (stereo not shown) [CBK282103] — lower, 98.9%
- CS(=O)(=O)Nc1cccc(-c2cnc3[nH]c(=O)n(Cc4ccc(S(C)(=O)=O)cc4)c3n2)c1 [CBK065061] — lower, 98.6%
- Cc1cc(OCCC#N)cc(C)c1Cl [CBK015872] — lower, 98.2%
- Cc1cc(C)c2cc(C(=O)N(C)CC3(C)COC3)[nH]c2c1 [CBK281711] — lower, 87%
- Cc1nc(CC(=O)N2CCC[C@@H]3NC(=O)c4ccccc4OCCCCC[C@@H]32)cs1 [CBK292113] — higher, 102%
- O=C(Nc1ccc(=O)n2c1[C@@H]1C[C@@H](CN(C(=O)c3ccc(F)cc3)C1)C2)c1cncnc1 [CBK288713] — higher, 112%
- Cc1cc(C)c2nc(NC(=O)c3ccc(=O)n(CC(=O)NC4CCCCC4)c3)sc2c1 [CBK285980] — higher, 107%
- CCOC(=O)c1cnn(C2CCCN(Cc3c(C)n[nH]c3C)C2)c1 (stereo not shown) [CBK304059] — lower, 88.6%
- CC(C)(C)C(=O)CSc1nnc(Cn2cnc(Cl)c2Cl)o1 [CBK011055] — lower, 81.2%
- CC[C@H]1CN2CC[C@H]1C[C@@H]2CNC(=O)Nc1cccc(C#N)c1 [CBK288748] — lower, 87.4%
- COc1ccc(N(CC(=O)N2CCN(C)CC2)S(=O)(=O)c2ccc(C)c([N+](=O)[O-])c2)cc1 [CBK264051] — lower, 89.8%
- N#CCCn1cc(C(=O)Nc2ccc(C(=O)O)cc2)c(-c2cc3ccccc3o2)n1 [CBK267866] — lower, 96.6%
- O=C1NCC2(CCCN(C(=O)c3cccs3)C2)Oc2ccccc21 (stereo not shown) [CBK284900] — higher, 102%
- CC(C)(C)c1ccc(S(=O)(=O)N2CCCC[C@H]2CCOC(=O)/C=C\C(=O)O)cc1 [CBK200069] — lower, 89.6%
- Cc1cnc2c(C(=O)Nc3cccc(CCc4ccncc4)c3)cnn2c1 [CBK285558] — higher, 106%
- CCCc1nn(CC(=O)NC(C)C)c(=O)c2cc3ccsc3n12 [CBK284147] — lower, 87.5%
